This experiment addresses Dipeptidyl peptidase 4 (Bos taurus, UniProt P81425).

The values that follow come from ChEMBL document CHEMBL2146411, “Discovery of 3H-imidazo[4,5-c]quinolin-4(5H)-ones as potent and selective dipeptidyl peptidase IV (DPP-4) inhibitors” (Bioorg Med Chem, 2012).

Chain of Dipeptidyl peptidase 4 (P81425 whole entry): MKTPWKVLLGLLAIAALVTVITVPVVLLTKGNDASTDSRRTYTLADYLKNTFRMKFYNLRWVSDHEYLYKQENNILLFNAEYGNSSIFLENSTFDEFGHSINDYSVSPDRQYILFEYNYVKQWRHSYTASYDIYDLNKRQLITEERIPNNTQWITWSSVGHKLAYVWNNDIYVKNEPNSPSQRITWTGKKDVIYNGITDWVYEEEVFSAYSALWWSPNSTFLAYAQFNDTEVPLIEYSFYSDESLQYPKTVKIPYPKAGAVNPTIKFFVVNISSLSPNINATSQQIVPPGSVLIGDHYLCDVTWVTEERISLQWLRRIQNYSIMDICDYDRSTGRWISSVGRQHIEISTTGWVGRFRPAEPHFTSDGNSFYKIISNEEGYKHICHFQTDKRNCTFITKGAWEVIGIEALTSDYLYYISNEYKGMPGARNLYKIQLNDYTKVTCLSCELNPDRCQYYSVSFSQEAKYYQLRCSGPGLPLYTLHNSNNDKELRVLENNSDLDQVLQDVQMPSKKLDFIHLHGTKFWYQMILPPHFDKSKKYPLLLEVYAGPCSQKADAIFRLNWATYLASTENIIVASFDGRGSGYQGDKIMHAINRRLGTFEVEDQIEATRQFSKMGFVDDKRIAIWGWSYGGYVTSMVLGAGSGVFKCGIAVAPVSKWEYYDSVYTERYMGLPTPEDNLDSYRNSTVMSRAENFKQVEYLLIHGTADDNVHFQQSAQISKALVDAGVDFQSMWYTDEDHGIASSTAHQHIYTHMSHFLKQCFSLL
Description: Inhibition of bovine DPP4 by HTS assay

The compound `CC(C)=CCn1c(N2CCNCC2)nc2c1c(=O)[nH]c(=O)n2C` gave an IC50 of 676 nM.

The IC50 is the concentration needed to halve the response being measured.
